The nature of data set [1]: acute toxicity in the mouse, intraperitoneal. The note with it: mouse, in vivo, ip, voie intrapéritonéale; for LD50 at 48 h: souris femelles, read-out: DL 50; for mortality at 48 h: read-out: Mortalité %. It is filed as in vivo, Souris. The text has this: (§1) Les produits ont été administrés par voie intrapéritonéale à des souris femelles dont le poids variait de 18 à 30 g.
(§2) Les animaux injectés ont été maintenus dans une salle thermostatée, nourris et abreuvés à volonté.
(§3) La mortalité a été relevée à 1 heure, 4 heures, 24 heures et 48 heures.

Data set [2] relates to souris femelles. Description: acute toxicity in the mouse, intraperitoneal. In kind it is in vivo. To be noted: voie intrapéritonéale; for Mortalité en 1 heure / Mortalité en 48 h. / Mortalité en 48 heures: dead mice of the group.
Text: as §1, §2, §3

The subject of data set [3] is Souris. Description: antireserpine activity: reserpine hypothermia. It is filed as in vivo. The note with it: réserpine 5 mg/kg i.p. 17 h before. The procedure: On note ensuite les températures témoins (réserpine), puis les températures 1, 2, 3 et 4 heures après l'administration des produits étudiés.
Les animaux sont répartis en lots de 4 animaux et reçoivent par voie intrapéritonéale la réserpine à une dose de 5 mg/kg. 17 heures après cette injection, on mesure la température corporelle de l'animal à l'aide d'une sonde thermocouple introduite dans le rectum; chaque lot reçoit ensuite la substance par voie intrapéritonéale. Le lot témoin reçoit la même quantité de solvant et par la même voie. La température corporelle est ensuite mesurée toutes les heures pendant 4 heures.
Les résultats sont rassemblés dans un tableau récapitulatif-où sont indiqués : • - la température moyenne pour chaque lot relevée 17 heures après l'injection de la réserpine, • - la moyenne des variations de température pour chaque lot relevées 1,2, 3 et 4 heures après l'injection de la substance étudiée, • - la somme des variations de températures pendant 4 heures, • - le pourcentage d'augmentation de la température pour chaque produit par rapport aux témoins.

Read-outs that look alike come from different tables or passages of the source.

For the compound `c1ccc(C2=NOC3c4ccccc4Nc4ccccc4C23)cc1` (stereo not shown) [compound 1, phényl-3 trihydro-3a,8,12b (dibenzo [b,f]isoxazolo [4,5-d])azépine], the LD50 at 48 h in data set [1] was over 100 mg/kg. For the same compound, the mortality at 48 h in data set [1] (50 mg/kg) came to 0%. Further, the mortality at 48 h in data set [1] (100 mg/kg) amounted to 0%. In addition, in data set [2] (50 mg/kg), the “Mortalité en 1 heure” value is given as 0 and the “Mortalité en 48 h.” value was 0. Moreover, in data set [2] (100 mg/kg), the “Mortalité en 1 heure” value is reported as 0 and the “Mortalité en 48 h.” value came out at 0. The change in vivo at 15 mg/kg in data set [3] (ip, 4 h, product i.p. 15 mg/kg, read-out: % d'augmentation par rapport aux témoins) came to 45%. In data set [3] (product i.p. 15 mg/kg), the “variation de température T= 2h” value is recorded as “+0,5”, the “variation de température T=3h” value was “+0,4” and the “variation de température T=4h” value is recorded as “+0,7”.
In the case of `CC(CN(C)C)CN1c2ccccc2C2ON=C(c3ccccc3)C2c2ccccc21` (stereo not shown) [compound 4, (méthyl-2 diméthylamino-3 propyl)-8 phényl-3 trihydro-3a, 8, 12b (dibenzo[b,f]-isoxazolo [4,5-d]) azépine], the LD50 at 48 h in data set [1] came out at 175 mg/kg. Besides, the mortality at 48 h turned out to be 0% in data set [1] (100 mg/kg) and 100% in data set [1] (300 mg/kg). In addition, the figures for the “Mortalité en 1 heure” value in data set [2] (100 mg/kg) and in data set [2] (300 mg/kg) were 0 and 4, respectively. Also, the entries for the “Mortalité en 48 h.” value in data set [2] (100 mg/kg) and in data set [2] (300 mg/kg) were 0 and 4, respectively.
For `OCCN1CCN(CCCN2c3ccccc3C3ON=C(c4ccccc4)C3c3ccccc32)CC1` (stereo not shown) [compound 5], in data set [1], the LD50 at 48 h was 125 mg/kg. Further, the mortality at 48 h was 20% in data set [1] (75 mg/kg), 40% in data set [1] (125 mg/kg), 100% in data set [1] (200 mg/kg) and 100% in data set [1] (250 mg/kg). Also, the “Mortalité en 1 heure” value in data set [2] (75 mg/kg) amounted to 1; in data set [2] (125 mg/kg) it was 2; in data set [2] (200 mg/kg) it was 5; in data set [2] (250 mg/kg), 5. Besides, the “Mortalité en 48 h.” value in data set [2] (75 mg/kg) came out at 1; in data set [2] (125 mg/kg) it was 2; in data set [2] (200 mg/kg), 5; in data set [2] (250 mg/kg) it was 5.
Regarding `c1ccc(C2=NN(c3ccccc3)C3c4ccccc4Nc4ccccc4C23)cc1` (stereo not shown) [compound 6, diphényl-1,3 tétrahydro-1,3a,8,12b(dibenzo [b,d]pyrazolo[3,4-d])hazépine], the LD50 at 48 h in data set [1] is over 750 mg/kg. In addition, the mortality at 48 h in data set [1] (500 mg/kg) was 0%. The mortality at 48 h in data set [1] (750 mg/kg) is 0%. Besides, in data set [2] (500 mg/kg), the “Mortalité en 1 heure” value is 0 and the “Mortalité en 48 h.” value was 0. In data set [2] (750 mg/kg), the “Mortalité en 1 heure” value is listed as 0 and the “Mortalité en 48 h.” value is 0. Also, the change in vivo at 150 mg/kg in data set [3] (ip, 4 h, product i.p. 150 mg/kg, read-out: % d'augmentation par rapport aux témoins) came to 80%. Further, in data set [3] (product i.p. 150 mg/kg), the “variation de température T= 2h” value was “+0,7”, the “variation de température T=3h” value was “+0,6” and the “variation de température T=4h” value was “+0,4”.
Consider `CN(C)CCCN1c2ccccc2C2C(c3ccccc3)=NN(c3ccccc3)C2c2ccccc21` (stereo not shown) [compound 8, (y-diméthylaminopropyl)-8 diphênyl-1,3 tétrahydro-1,3a,8, 12b(dibenzo [b,f]pyrazolo [3,4-d])azépine], for which the LD50 at 48 h in data set [1] is over 250 mg/kg. Moreover, the mortality at 48 h in data set [1] (5 mg/kg) was 0%; in data set [1] (50 mg/kg), 0%; in data set [1] (100 mg/kg), 0%; in data set [1] (150 mg/kg) it was 20%; in data set [1] (250 mg/kg) it was 0%. Also, the “Mortalité en 1 heure” value in data set [2] (5 mg/kg) was determined as 0; in data set [2] (50 mg/kg), 0; in data set [2] (100 mg/kg), 0; in data set [2] (150 mg/kg) it was 1; in data set [2] (250 mg/kg), 0. In addition, the “Mortalité en 48 h.” value in data set [2] (5 mg/kg) amounted to 0; in data set [2] (50 mg/kg) it was 0; in data set [2] (100 mg/kg), 0; in data set [2] (150 mg/kg), 1; in data set [2] (250 mg/kg) it was 0.
In the case of `CC(CN(C)C)CN1c2ccccc2C2C(c3ccccc3)=NN(c3ccccc3)C2c2ccccc21` (stereo not shown) [compound 9, (méthyl-2 diméthylamino-3 propyl)-8 diphényl-1,3 tétrahydro-1,3a, 8, 12b (dibenzo [b, f]pyrazolo [3,4-d])azépine], the LD50 at 48 h in data set [1] is over 300 mg/kg. The mortality at 48 h in data set [1] (150 mg/kg) was found to be 0%. Also, the mortality at 48 h in data set [1] (300 mg/kg) is 0%. In addition, in data set [2] (150 mg/kg), the “Mortalité en 1 heure” value turned out to be 0 and the “Mortalité en 48 h.” value is listed as 0. For the same compound, in data set [2] (300 mg/kg), the “Mortalité en 1 heure” value is on record as 0 and the “Mortalité en 48 h.” value is reported as 0. In addition, in data set [3] (ip, 4 h, product i.p. 50 mg/kg, read-out: % d'augmentation par rapport aux témoins), the change in vivo at 50 mg/kg is 60%. Moreover, in data set [3] (product i.p. 50 mg/kg), the “variation de température T= 2h” value was “+0,8”, the “variation de température T=3h” value is “+0,6” and the “variation de température T=4h” value is “+0,1”.
For `CC(CN(C)C)CN1c2ccccc2-c2c(-c3ccccc3)nn(-c3ccccc3)c2-c2ccccc21` (stereo not shown) [compound 15, (méthyl-2 diméthylamino-3 propyl)-8 diphényl 1,3 dihydro-1,8(dibenzo [b,f]pyrazolo [3 ,4-d]) azépine], the LD50 at 48 h in data set [1] was found to be 175 mg/kg. Also, the mortality at 48 h in data set [1] (50 mg/kg) amounted to 0%; in data set [1] (100 mg/kg) it was 0%; in data set [1] (250 mg/kg), 80%; in data set [1] (300 mg/kg) it was 80%. The “Mortalité en 1 heure” value in data set [2] (50 mg/kg) is recorded as 0; in data set [2] (100 mg/kg) it was 0; in data set [2] (250 mg/kg), 2; in data set [2] (300 mg/kg), 0. Also, the “Mortalité en 48 h.” value in data set [2] (50 mg/kg) was found to be 0; in data set [2] (100 mg/kg), 0; in data set [2] (250 mg/kg), 4; in data set [2] (300 mg/kg), 4.
Regarding `c1ccc(-c2noc3c2-c2ccccc2Nc2ccccc2-3)cc1` [compound 16, phényl-3 (dibenzo [b,f]isoxazolo [4,5-d]) 8H azépine], the LD50 at 48 h in data set [1] is over 1000 mg/kg. For the same compound, the mortality at 48 h is 0% in data set [1] (50 mg/kg); 0% in data set [1] (100 mg/kg); 20% in data set [1] (250 mg/kg); 0% in data set [1] (500 mg/kg); 0% in data set [1] (1000 mg/kg). For the same compound, the “Mortalité en 1 heure” value in data set [2] (50 mg/kg), in data set [2] (100 mg/kg), in data set [2] (250 mg/kg), in data set [2] (500 mg/kg) and in data set [2] (1000 mg/kg) was 0 in each case. For the same compound, the “Mortalité en 48 h.” value worked out at 0 in data set [2] (50 mg/kg), 0 in data set [2] (100 mg/kg), 1 in data set [2] (250 mg/kg) and 0 in data set [2] (500 mg/kg). Besides, the “Mortalité en 48 heures” value in data set [2] (1000 mg/kg) turned out to be 0.
As for “(γ-diméthylaminopropyl)-8 phényl-1 (chloro-4' phényl)-3 tétrahydro-1,3a, 8,12b(dibenzo[b,f]pyrazolo [3,4-d])azépine [compound 11]”, in data set [2] (souris femelles, 2880 min), the “DL 50” value is reported as over 1000 mg/kg. The Mortalité % in data set [2] (250 mg/kg, 2880 min) turned out to be 0%. In data set [2] (250 mg/kg), the “Mortalité en 1 heure” value is 0 and the “Mortalité en 48 h.” value worked out at 0. Further, the Mortalité % in data set [2] (450 mg/kg, 2880 min) is on record as 0%. Also, in data set [2] (450 mg/kg), the “Mortalité en 1 heure” value worked out at 0 and the “Mortalité en 48 heures” value was 0. For the same compound, the Mortalité % in data set [2] (1000 mg/kg, 2880 min) came to 0%. In addition, in data set [2] (1000 mg/kg), the “Mortalité en 1 heure” value is 0 and the “Mortalité en 48 heures” value is recorded as 0. In data set [3] (product i.p. 150 mg/kg), the “% d'augmentation par rapport aux témoins” value is listed as 85%, the “variation de température T= 2h” value is on record as “+0,4”, the “variation de température T=3h” value is on record as “+0,5” and the “variation de température T=4h” value was “+0,7”.

Values taken from patent EP0063525A1, “Dibenzazepine tetracyclic derivatives, process for their preparation and pharmaceutical compositions containing them” (CENTRE NATIONAL DE LA RECHERCHE SCIENTIFIQUE (CNRS), priority 1981, dated 1982).
